Consider six compounds from patent US5955426A, “Cyclic hexapeptide somatostatin analogues” (Diatide, Inc., priority 1997, dated 1999).

Square brackets hold non-standard residues; d marks the D form. Peptide text beside a SMILES is read from it. * marks the point of attachment. X11 = NCCCC[C@H](NC(=O)C*)C(=O)NCCCC[C@H](N)C(=O)NCC(=O)N[C@@H](CS)C(N)=O; X13 = CC(=O)NCSC[C@H](NC(=O)CNC(=O)[C@H](CSCNC(C)=O)NC(=O)C*)C(N)=O; X7 = NC(=O)[C@H](CS)NC(=O)CNC(=O)[C@@H](N)CCCCNC(=O)C*; X5 = O=C(CNC(=O)[C@H](CS)NC(=O)C*)N[C@@H](CS)C(=O)O; X6 = NC(=O)[C@H](CS)NC(=O)CNC(=O)[C@H](CS)NC(=O)C*; X12 = NC(=O)[C@H](CS)NC(=O)CNC(=O)CNC(=O)C*; NMeF = CN[C@@H](Cc1ccccc1)C(=O)O; hCys = N[C@@H](CCS)C(=O)O

T1 sequence (P30680 whole entry): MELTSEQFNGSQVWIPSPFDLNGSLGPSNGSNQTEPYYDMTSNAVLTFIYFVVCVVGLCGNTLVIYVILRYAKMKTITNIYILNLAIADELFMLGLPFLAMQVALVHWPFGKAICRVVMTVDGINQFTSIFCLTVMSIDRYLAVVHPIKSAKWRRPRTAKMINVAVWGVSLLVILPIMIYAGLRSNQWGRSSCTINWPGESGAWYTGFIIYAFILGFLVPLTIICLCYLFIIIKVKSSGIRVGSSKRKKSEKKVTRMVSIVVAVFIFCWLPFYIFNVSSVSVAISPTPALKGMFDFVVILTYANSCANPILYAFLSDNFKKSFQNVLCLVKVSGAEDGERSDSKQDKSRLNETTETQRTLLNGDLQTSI

This assay concerns the target T1, somatostatin receptor (Rattus norvegicus, UniProt P30680).
T1 construct: endogenous in cells; host or cells: AR42J rat pancreatic tumor cell line (membrane preparation)
In words: Inhibition of binding of (125I-Tyr11)somatostatin-14 to AR42J rat pancreatic tumor cell membranes. As to conditions: 0.5 nM (125I-Tyr11)somatostatin-14, 25 min at 30° C., read-out: K1 (inhibition constant). As for the experimental part: Inhibition of Binding of (^125 I-Tyr^11)somatostatin-14 to AR42J Rat Pancreatic Tumor Cell Membranes
The rat pancreatic tumor cell line AR42J which expresses the somatostatin receptor was cultured in Dulbecco's minimal essential media (DMEM) supplemented with 10% fetal bovine serum (FBS) and 8 mM glutamine in a humidified 5% CO2 atmosphere at 37° C. in T-flasks. Harvested cells were homogenized in cold 50 mM Tris-HCl buffer (pH 7.4) and the homogenate then centrifuged at 39,000 g for 10 min at 4° C. Pellets were washed once with buffer and then resuspended in an ice-cold solution of 10 mM Tris-HCl (pH 7.4). Equal aliquots of this cell membrane preparation were incubated with (^125 I-Tyr^11)somatostatin-14 (at a final concentration of 0.5 nM and 750,000 cpm/mL, at a specific activity of 2000 Ci/mmol, Amersham, Arlington Heights, Ill.) and peptide at a final concentration of from 10^-11 M to 10^-6 M in a solution of 50 mM HEPES (pH 7.4) containing 1% bovine serum albumin (BSA), 5 mM MgCl2, Trasylol (200,000 International Units), bacitracin (0.02 mg/mL) and phenylmethylsulfonylfluoride (0.02 mg/mL) for 25 min at 30° C. Using a filtration manifold, this mixture was filtered through a polyethyleneimine-washed GC/F filter (Whatman, Maidstone, England), and the residue remaining on the filter washed thrice with 5 mL cold HEPES buffer. The filter and a sample of the filter washings were then counted in a gamma counter. To assess non-specific binding, the assay was performed in the presence of unlabeled somatostatin-14 at 200 nM. Data analysis including Hill plots of the data provided inhibition constants (see Bylund & Yamamura, "Methods of receptor binding", in Methods in Neurotransmitter Receptor Analysis, Yamamura et al., eds., Raven Press: New York, 1990).
As for `CC(C)[C@@H]1NC(=O)[C@H](CCCCN)NC(=O)[C@@H](Cc2c[nH]c3ccccc23)NC(=O)[C@H](Cc2ccc(O)cc2)NC(=O)[C@H](Cc2ccccc2)N(C)C(=O)[C@H](CCSCC(=O)NCCCC[C@H](N)C(=O)NCC(=O)N[C@@H](CS)C(N)=O)NC1=O` [cyclo.(N-CH3)FYWD KV.Hcy(CH2 CO.(ε-K)GC.amide)] (cyclo([NMeF]Y[dW]KV[hCys](X7))), the Ki came to 2 nM. As to `CC(=O)NCSC[C@H](NC(=O)CNC(=O)[C@H](CSCNC(C)=O)NC(=O)CSCC[C@@H]1NC(=O)[C@H](C(C)C)NC(=O)[C@H](CCCCN)NC(=O)[C@@H](Cc2c[nH]c3ccccc23)NC(=O)[C@H](Cc2ccc(O)cc2)NC(=O)[C@H](Cc2ccccc2)N(C)C1=O)C(N)=O` [cyclo.(N-CH3)FYWD KV.Hcy(CH2 CO.CAcm GCAcm.amide)] (cyclo(KV[hCys](X13)[NMeF]Y[dW])), the Ki was found to be 0.79 nM. Turning to `CC(C)[C@@H]1NC(=O)[C@H](CCCCN)NC(=O)[C@@H](Cc2c[nH]c3ccccc23)NC(=O)[C@H](Cc2ccc(O)cc2)NC(=O)[C@H](Cc2ccccc2)N(C)C(=O)[C@H](CCSCC(=O)N[C@@H](CS)C(=O)NCC(=O)N[C@@H](CS)C(=O)O)NC1=O` [cyclo.(N-CH3)FYWD KV.Hcy(CH2 CO.CGC)] (cyclo(KV[hCys](X5)[NMeF]Y[dW])), the Ki is 1.8 nM.

Consider `CC(C)[C@@H]1NC(=O)[C@H](CCCCN)NC(=O)[C@@H](Cc2c[nH]c3ccccc23)NC(=O)[C@H](Cc2ccc(O)cc2)NC(=O)[C@H](Cc2ccccc2)N(C)C(=O)[C@H](CCSCC(=O)N[C@@H](CS)C(=O)NCC(=O)N[C@@H](CS)C(N)=O)NC1=O` [cyclo.(N-CH3)FYWD KV.Hcy(CH2 CO.CGC.amide)] (cyclo([NMeF]Y[dW]KV[hCys](X6))), for which the Ki was determined as 1.5 nM. In the case of `CC(C)[C@@H]1NC(=O)[C@H](CCCCN)NC(=O)[C@@H](Cc2c[nH]c3ccccc23)NC(=O)[C@H](Cc2ccc(O)cc2)NC(=O)[C@H](Cc2ccccc2)N(C)C(=O)[C@H](CCSCC(=O)NCC(=O)NCC(=O)N[C@@H](CS)C(N)=O)NC1=O` [cyclo.(N-CH3)FYWD KV.Hcy(CH2 CO.GGC.amide)] (cyclo([NMeF]Y[dW]KV[hCys](X12))) it was 2.4 nM. As for `CC(C)[C@@H]1NC(=O)[C@H](CCCCN)NC(=O)[C@@H](Cc2c[nH]c3ccccc23)NC(=O)[C@H](Cc2ccc(O)cc2)NC(=O)[C@H](Cc2ccccc2)N(C)C(=O)[C@H](CCSCC(=O)N[C@@H](CCCCN)C(=O)NCCCC[C@H](N)C(=O)NCC(=O)N[C@@H](CS)C(N)=O)NC1=O` [cyclo.(N-CH3)FYWD KV.Hcy(CH2 CO.K(ε-K)GC.amide)] (cyclo([NMeF]Y[dW]KV[hCys](X11))), the Ki was 0.65 nM.
